Laboratory results as given in patent publication US6943025B2, “Method for identifying genes involved in cell proliferation” (Children's Medical Center Corporation, priority 2001, dated 2005).

Experiments:
[1] = system: zebrafish embryos; settings: literature reports; cited from earlier work
[2] = system: Wild-type fish; settings: zebrafish, in vivo
[3] = system: zebrafish mutant strains and wild-type; experiment: Carcinogenesis assay in mutant strains (carcinogen induced tumorigenesis, Table II); settings: 21 day-old fry
[4] = SQW 61, 5.0 ppm DMBA 24 hours, three months post-treatment
[5] = SQW 213, 5.0 ppm DMBA 24 hours, three months post-treatment
[6] = SQW 226, 5.0 ppm DMBA 24 hours, three months post-treatment
[7] = SQW 280, 5.0 ppm DMBA 24 hours, three months post-treatment
[8] = WT, 5.0 ppm DMBA 24 hours, 6 months post-treatment

Question: With `C[C@@]1(CO)[C@H](O)CC[C@@]2(C)[C@H]1CC[C@H]1C[C@@H]3C[C@@]12CC[C@]3(O)CO` [aphidicolin] as the molecule, how does the “effect on zebrafish embryos (checkpoint, apoptosis)” value (shortened to “effect on zebrafish embryos”) [1] read?
Answer: cause apoptosis

Question: With `CC[C@@]1(O)C(=O)OCc2c1cc1n(c2=O)Cc2cc3ccccc3nc2-1` [Camptothecin] as the molecule, how does the “effect on zebrafish embryos” value [1] read?
Answer: produces DNA strand breaks, resulting in subsequent apoptosis

Question: For `NC(=O)NO` [hydoxyurea], which “effect on zebrafish embryos” value [1] is on record?
Answer: cause apoptosis

Question: For `COC(=O)Nc1nc2cc(C(=O)c3cccs3)ccc2[nH]1` [nocodozolc], which “effect on zebrafish embryos” value [1] is on record?
Answer: destabilized microtubules and the activation of a mitotic checkpoint

Question: Which “fish that developed tumors” value ([2]; wild-type) does the source give for `Cc1c2ccccc2c(C)c2c1ccc1ccccc12` [DMBA, 7,12 dimethylbenzanthracene] here?
Answer: 10.4%

Question: And the “fish that developed tumors / fish treated” value ([2]; wild-type)?
Answer: 9/86

Question: And the “tumor seen in tissue sections (histology)” value [2]?
Answer: medulloblastoma

Question: What about the tumor types produced [2] of the same molecule?
Answer: more brain and liver tumors

Question: And the “# tumors” value [3, 4]?
Answer: 24

Question: And the “% tumors” value [3, 4]?
Answer: 18%

Question: And the “# tumors” value [3, 5]?
Answer: 2

Question: What about the “% tumors” value [3, 5] of the same molecule?
Answer: 7%

Question: And the “# tumors” value [3, 6]?
Answer: 4

Question: What about the “% tumors” value [3, 6] of the same molecule?
Answer: 20%

Question: And the “# tumors” value [3, 7]?
Answer: 6

Question: What about the “% tumors” value [3, 7] of the same molecule?
Answer: 12%

Question: What about the “# tumors” value [3, 8] of the same molecule?
Answer: 2

Question: What about the “% tumors” value [3, 8] of the same molecule?
Answer: 5%
